Measured values reported in US6391329B1, “Insect pest control method” (Earth Chemical Co., Ltd., priority 1994, dated 2002).

Key:
[1] = Vapor pressure measurement of pyrethroid compounds with the vapor pressure measuring apparatus
[2] = system: Northern house mosquito (female adult); experiment: Insecticidal test in acrylic resin cylinder, air blown through impregnated honeycomb carrier (Example 1); type: in vivo; conditions: 500 mg preparation; for number of knockdowns: 26 to 30° C.
Source text: Testing apparatus 1 shown in FIG. 1 comprising acrylic resin cylinder 4 was used. Twenty of northern house mosquitos (female adult) were put in the space partitioned with insect nets 2, and blower 3 was set at the bottom of testing apparatus 1. Preparation-retaining material 5 comprising a honeycomb carrier impregnated with a preparation was fitted in at the lower part of cylinder 4 and above blower 3. Air was blown from the bottom of cylinder 4 and passed through the preparation-retaining material 5 to release the pesticidal component from the preparation, and the insecticidal effect was examined using apparatus 1 for insect control of the present invention.
The number of knockdowns of the mosquitos was counted for every 30 seconds during 10 minutes and 30 seconds following the start of the testing. The mosquitos knocked down were transferred to a clean plastic cup (volume: about 500 ml) containing a cotton wad impregnated with a 1% aqueous sugar solution as feed, and the cup was covered and maintained under constant temperature conditions of about 25° C. […]
The preparation-retaining material used herein was prepared as follows. A honeycomb structure (70×70×15 mm) comprising a laminate of corrugated boards (single-sided) made of bleached kraft paper having a basis weight of 80 g/m^2 (height of the corrugation: about 2 mm) was uniformly impregnated with 3 ml of an acetone solution containing about 500 mg of preparation. The impregnated carrier was set in the apparatus after acetone vaporized.

[3] = Vapor pressure at 30° C. on the cox diagram; type: physicochemical
Experimental: Compounds which are hard to vaporize at normal temperature can be used in the present invention as a pesticidal component. Those having a vapor pressure […] than 1×10^−7 mmHg at 30° C. and a boiling point of not lower than 120° C./1 mmHg are preferred. It should be noted that the range of vapor pressure as referred to herein is the range at 30° C. on the vapor pressure vs. temperature plot in the cox diagram hereinafter described.
The results of our study have made it possible to suppose or know the vapor pressure at a target temperature by utilizing the cox diagram only if at least one found value is available. The aforesaid problem can thus be solved.
The cox diagram as used herein is the straight line or a group of the straight lines obtained by plotting log P as ordinate and t/(t+C) as abscissa on a graph.

[4] = system: sensitive German cockroaches (Blatella germanica); experiment: Cockroach knockdown and mortality in 24 m^3 test room (Example 3); type: in vivo; conditions: 1.0 g pesticidal component
Experimental: (§1) The insect pest control apparatus of the present invention was put at the center of the floor of the room, and two cups each containing 20 cockroaches were placed at each of the two opposite corners of the floor. The pesticidal component shown in Table 5 below was released from the apparatus for consecutive 24 hours. As test insects, sensitive German cockroaches (Blatella germanica) and sensitive smokybrown cockroaches (Periplaneta fuliginosa) were used.
(§2) The preparation-retaining material used was prepared by impregnating a honeycomb carrier (70×70×15 mm; FIG. 3) with 1.0 g of the pesticidal component.

[5] = system: sensitive smokybrown cockroaches (Periplaneta fuliginosa); experiment: as above; type: in vivo; conditions: 1.0 g pesticidal component
Experimental: as §1, §2

Structure (SMILES) | Vapor Pressure ([1]; 20° C.) | Vapor Pressure ([1]; 25° C.) | Vapor Pressure ([1]; 30° C.) | Vapor Pressure ([1]; 35° C.) | Vapor Pressure ([1]; 40° C.) | number of knockdowns ([2]; 0.5 min) | number of knockdowns ([2]; 1.0 min) | number of knockdowns ([2]; 1.5 min) | number of knockdowns ([2]; 2.0 min) | number of knockdowns ([2]; 2.5 min) | number of knockdowns ([2]; 3.0 min) | number of knockdowns ([2]; 3.5 min) | Mortality (%) ([2]; 24 hrs.) | Mortality (%) ([2]; 48 hrs.) | Vapor Pressure at 30° C. [3] | further results
CC1(C)C(C=C(Cl)Cl)C1C(=O)OCc1cccc(Oc2ccccc2)c1 (mixture of isomers) [permethrin, 3-phenoxybenzyl-dl-cis/trans-3-(2,2-dichlorovinyl)-2,2-dimethyl-1-cyclopropanecarboxylate] | 5.5 × 10^−7 mmHg | 1.1 × 10^−6 mmHg | 1.9 × 10^−6 mmHg | 3.6 × 10^−6 mmHg | 6.3 × 10^−6 mmHg | – | – | – | – | – | – | – | – | – | – | –
C#CCc1ccc(COC(=O)C2C(C=C(C)C)C2(C)C)o1 (mixture of isomers) [furamethrin, 5-propargyl-2-furylmethyl d-cis/trans-chrysanthemate] | 1.3 × 10^−4 mmHg | 2.2 × 10^−4 mmHg | 4.5 × 10^−4 mmHg | 7.1 × 10^−4 mmHg | 1.4 × 10^−3 mmHg | 0 | 0 | 0 | 1 | 3 | 8 | 18 | 100% | 100% | 4.5 × 10^−4 mmHg | number of knockdowns ([2]; 4.0 min): 19
CC(C)=CC1C(C(=O)OCN2C(=O)C3=C(CCCC3)C2=O)C1(C)C (mixture of isomers) [phthalthrin, (1,3,4,5,6,7-hexahydro-1,3-dioxo-2-isoindolyl)methyl dl-cis/trans-chrysanthemate] | 3.5 × 10^−8 mmHg | 6.6 × 10^−8 mmHg | 1.2 × 10^−7 mmHg | 2.2 × 10^−7 mmHg | 3.8 × 10^−7 mmHg | – | – | – | – | – | – | – | – | – | – | –
C=CCC1=C(C)C(OC(=O)C2C(C)(C)C2(C)C)CC1=O (racemic) [terallethrin, dl-3-allyl-2-methyl-4-oxo-2-cyclopentenyl dl-cis/trans-2,2,3,3-tetramethylcyclopropanecarboxylate] | 2.2 × 10^−4 mmHg | 4.2 × 10^−4 mmHg | 6.6 × 10^−4 mmHg | 1.2 × 10^−3 mmHg | 4.8 × 10^−3 mmHg | 0 | 0 | 4 | 15 | 17 | – | – | 88% | 100% | 6.6 × 10^−4 mmHg | –
CC(C)=CC1C(C(=O)OC(C#N)c2cccc(Oc3ccccc3)c2)C1(C)C (racemic) [cyphenothrin, (±) αa-cyano-3-phenoxybenzyl(+)-cis/trans-chrysanthemate] | 9.2 × 10^−7 mmHg | 1.9 × 10^−6 mmHg | 3.6 × 10^−6 mmHg | 6.6 × 10^−6 mmHg | 1.3 × 10^−5 mmHg | – | – | – | – | – | – | – | – | – | – | –
C#CCC1=C(C)C(OC(=O)C2C(C=C(C)C)C2(C)C)CC1=O (mixture of isomers) [prallethrin, (+)-2-methyl-4-oxo-3-(2-propynyl)-2-cyclopentenyl (+)-cis/trans-chrysanthemate] | 3.5 × 10^−5 mmHg | 6.9 × 10^−5 mmHg | 1.3 × 10^−4 mmHg | 2.4 × 10^−4 mmHg | 4.4 × 10^−4 mmHg | 0 | 0 | 1 | 10 | 15 | 21 | 22 | 86% | 100% | 1.3 × 10^−4 mmHg | –
CC1(C)C(C=C(Cl)Cl)C1C(=O)OCc1c(F)c(F)cc(F)c1F (stereo not drawn) [benfluthrin, d-trans-2,3,5,6-tetrafluorobenzyl-3-(2,2-dichlorovinyl)-2,2-dimethyl-1-cyclopropanecarboxylate] | 8.3 × 10^−5 mmHg | 1.5 × 10^−4 mmHg | 2.7 × 10^−4 mmHg | 4.0 × 10^−4 mmHg | 8.5 × 10^−4 mmHg | – | – | – | – | – | – | – | – | – | – | Knockdown Ratio (%) ([4]; 1 hr): 0%; Knockdown Ratio (%) ([4]; 2 hrs): 0%; Knockdown Ratio (%) ([4]; 4 hrs): 0%; Knockdown Ratio (%) ([4]; 24 hrs): 87.5%; Mortality at 48 hrs (%) ([4]; 48 hrs): 97.5%; Knockdown Ratio (%) ([5]; 1 hr): 0%; Knockdown Ratio (%) ([5]; 2 hrs): 0%; Knockdown Ratio (%) ([5]; 4 hrs): 5.0%; Knockdown Ratio (%) ([5]; 24 hrs): 6.3%; Mortality at 48 hrs (%) ([5]; 48 hrs): 7.5%
CC(C)=CC1C(C(=O)OCc2cccc(Oc3ccccc3)c2)C1(C)C (mixture of isomers) [phenothrin, 3-phenoxybenzyl-d-cis/trans-chrysanthemate] | 1.2 × 10^−6 mmHg | 2.2 × 10^−6 mmHg | 4.3 × 10^−6 mmHg | 7.7 × 10^−6 mmHg | 1.4 × 10^−5 mmHg | – | – | – | – | – | – | – | – | – | – | –
C=CCC1=C(C)C(OC(=O)C2C(C=C(C)C)C2(C)C)CC1=O (stereo not drawn) [esbiol, d-3-allyl-2-methyl-4-oxo-2-cyclopentenyl d-trans-chrysanthemate] | – | – | – | – | – | 0 | 0 | 1 | 3 | 10 | 17 | 19 | 70% | 78% | 1.2 × 10^−4 mmHg | number of knockdowns ([2]; 4.0 min): 22
CC(C)=CC1C(C(=O)OCc2coc(Cc3ccccc3)c2)C1(C)C (mixture of isomers) [resmethrin, (5-benzyl-3-furyl)methyl d-cis/trans-chrysanthemate] | 3.5 × 10^−6 mmHg | 7.1 × 10^−6 mmHg | 1.7 × 10^−5 mmHg | 2.8 × 10^−5 mmHg | 5.6 × 10^−5 mmHg | 0 | 0 | 0 | 0 | 2 | 2 | 4 | 58% | 79% | 1.7 × 10^−5 mmHg | number of knockdowns ([2]; 4.0 min): 5; number of knockdowns ([2]; 4.5 min): 5; number of knockdowns ([2]; 5.0 min): 7; number of knockdowns ([2]; 5.5 min): 7; number of knockdowns ([2]; 6.0 min): 8; number of knockdowns ([2]; 6.5 min): 10; number of knockdowns ([2]; 7.0 min): 12; number of knockdowns ([2]; 7.5 min): 13; number of knockdowns ([2]; 8.0 min): 16; number of knockdowns ([2]; 8.5 min): 17; number of knockdowns ([2]; 9.0 min): 19
CC(C)=CC1C(C(=O)OCN2C(=O)C3=C(CCCC3)C2=O)C1(C)C (stereo not shown) [tetramethrin] | 2.4 × 10^−6 mmHg | 4.4 × 10^−6 mmHg | 8.5 × 10^−6 mmHg | 1.7 × 10^−5 mmHg | 3.2 × 10^−5 mmHg | – | – | – | – | – | – | – | – | – | – | –
